Test results reported in US6054435A, “6-O-substituted macrolides having antibacterial activity” (priority 1999, dated 2000).
≈ marks a conversion by molar mass, not a printed value.

How the values were obtained:
Test in all cases: in vitro antibacterial activity (MIC), agar dilution
Type in all cases: cell-based
[1] = system: Candida albicans CCH 442; settings: organism code TT; BHI agar, 35-37° C., 20 to 24 hours; unit assumed
Procedure, shortened: (§1)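 Agar dilution on BHI agar with twelve successive compound dilutions; plates inoculated by Steers replicator with 1:100 culture dilutions (1:10 for slow growers such as Streptococcus). MIC is the lowest concentration giving no growth, slight haze or sparse colonies versus a drug-free control.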

[2] = system: Enterococcus faecium ATCC 8043; settings: organism code II; BHI agar, 35-37° C., 20 to 24 hours; unit assumed
Procedure, shortened: as §1

[3] = system: Escherichia coli DC-2; settings: organism code SS; BHI agar, 35-37° C., 20 to 24 hours; unit assumed
Procedure, shortened: as §1

[4] = system: Escherichia coli JUHL; settings: organism code QQ; BHI agar, 35-37° C., 20 to 24 hours; unit assumed
Procedure, shortened: as §1

[5] = system: Escherichia coli SS; settings: organism code RR; BHI agar, 35-37° C., 20 to 24 hours; unit assumed
Procedure, shortened: as §1

[6] = system: Haemophilis Influenzae DILL AMP R; settings: organism code WW; BHI agar, 35-37° C., 20 to 24 hours; unit assumed
Procedure, shortened: as §1

[7] = system: Micrococcus luteus ATCC 4698; settings: organism code PP; BHI agar, 35-37° C., 20 to 24 hours; unit assumed
Procedure, shortened: (§2)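 Plates of BHI agar were prepared with twelve aqueous dilutions of compound, then inoculated at 1:100 dilution, or 1:10 for slow growers like Streptococcus. After incubation they were inspected, and the lowest concentration yielding no growth, slight haze or sparse colonies was recorded as MIC.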

[8] = system: Micrococcus luteus ATCC 9341; settings: organism code OO; BHI agar, 35-37° C., 20 to 24 hours; unit assumed
Procedure, shortened: as §2

[9] = system: Mycobacterium smegmatis ATCC 114; settings: organism code UU; BHI agar, 35-37° C., 20 to 24 hours; unit assumed
Procedure, shortened: as §1

[10] = system: Nocardia Asteroides ATCC9970; settings: organism code VV; BHI agar, 35-37° C., 20 to 24 hours; unit assumed
Procedure, shortened: as §1

[11] = system: Staphylococcus aureus 1775; settings: organism code GG; BHI agar, 35-37° C., 20 to 24 hours; unit assumed
Procedure, shortened: as §1

[12] = system: Staphylococcus aureus A-5278; settings: organism code CC; BHI agar, 35-37° C., 20 to 24 hours; unit assumed
Procedure, shortened: as §1

[13] = system: Staphylococcus aureus A5177; settings: organism code BB; BHI agar, 35-37° C., 20 to 24 hours; unit assumed
Procedure, shortened: as §1

[14] = system: Staphylococcus aureus ATCC 6538P; settings: organism code AA; BHI agar, 35-37° C., 20 to 24 hours; unit assumed
Procedure, shortened: as §1

[15] = system: Staphylococcus aureus CMX 553; settings: organism code FF; BHI agar, 35-37° C., 20 to 24 hours; unit assumed
Procedure, shortened: as §1

[16] = system: Staphylococcus aureus CMX 642A; settings: organism code DD; BHI agar, 35-37° C., 20 to 24 hours; unit assumed
Procedure, shortened: as §1

[17] = system: Staphylococcus aureus NCTC10649M; settings: organism code EE; BHI agar, 35-37° C., 20 to 24 hours; unit assumed
Procedure, shortened: as §1

[18] = system: Staphylococcus epidermidis 3519; settings: organism code HH; BHI agar, 35-37° C., 20 to 24 hours; unit assumed
Procedure, shortened: as §1

[19] = system: Streptococcus Pneumonia 5649; settings: organism code ZZA; BHI agar, 35-37° C., 20 to 24 hours; unit assumed
Procedure, shortened: as §1

[20] = system: Streptococcus Pneumonia 5979; settings: organism code ZZ; BHI agar, 35-37° C., 20 to 24 hours; unit assumed
Procedure, shortened: as §1

[21] = system: Streptococcus Pneumonia ATCC6303; settings: organism code XX; BHI agar, 35-37° C., 20 to 24 hours; unit assumed
Procedure, shortened: as §1

[22] = system: Streptococcus Pneumonia GYR 1171; settings: organism code YY; BHI agar, 35-37° C., 20 to 24 hours; unit assumed
Procedure, shortened: as §1

[23] = system: Streptococcus agalactiae CMX 508; settings: organism code KK; BHI agar, 35-37° C., 20 to 24 hours; unit assumed
Procedure, shortened: as §1

[24] = system: Streptococcus bovis A-5169; settings: organism code JJ; BHI agar, 35-37° C., 20 to 24 hours; unit assumed
Procedure, shortened: as §1

[25] = system: Streptococcus pyogenes 930; settings: organism code MM; BHI agar, 35-37° C., 20 to 24 hours; unit assumed
Procedure, shortened: as §1

[26] = system: Streptococcus pyogenes EES61; settings: organism code LL; BHI agar, 35-37° C., 20 to 24 hours; unit assumed
Procedure, shortened: as §1

[27] = system: Streptococcus pyogenes PIU 2548; settings: organism code NN; BHI agar, 35-37° C., 20 to 24 hours; unit assumed
Procedure, shortened: as §1

| Structure (SMILES) | MIC [1] [µg/mL] | MIC [2] [µg/mL] | MIC [3] [µg/mL] | MIC [4] [µg/mL] | MIC [5] [µg/mL] | MIC [6] [µg/mL] | MIC [7] [µg/mL] | MIC [8] [µg/mL] | MIC [9] [µg/mL] | MIC [10] [µg/mL] | MIC [11] [µg/mL] | MIC [12] [µg/mL] | MIC [13] [µg/mL] | MIC [14] [µg/mL] | MIC [15] [µg/mL] | MIC [16] [µg/mL] | MIC [17] [µg/mL] | MIC [18] [µg/mL] | MIC [19] [µg/mL] | MIC [20] [µg/mL] | further results |
| --- | --- | --- | --- | --- | --- | --- | --- | --- | --- | --- | --- | --- | --- | --- | --- | --- | --- | --- | --- | --- | --- |
| CC[C@H]1OC(=O)[C@H](C)C(=O)[C@H](C)[C@@H](O[C@@H]2O[C@H](C)C[C@H](N(C)C)[C@H]2O)[C@](C)(OCC#Cc2ccc(-c3ccc(Cl)s3)s2)C[C@@H](C)C(=O)[C@H](C)[C@H]2NC(=O)O[C@@]21C [Example 26] | > 100 | 0.1 (≈ 0.12 µM) | > 100 | > 100 | 1.56 (≈ 1.87 µM) | 4 (≈ 4.79 µM) | 0.2 (≈ 0.239 µM) | 0.05 (≈ 0.0598 µM) | 0.39 (≈ 0.467 µM) | 0.1 (≈ 0.12 µM) | 12.5 (≈ 15 µM) | 12.5 (≈ 15 µM) | 0.2 (≈ 0.239 µM) | 0.2 (≈ 0.239 µM) | 0.2 (≈ 0.239 µM) | 0.2 (≈ 0.239 µM) | 0.2 (≈ 0.239 µM) | 0.2 (≈ 0.239 µM) | 0.25 (≈ 0.299 µM) | 0.5 (≈ 0.598 µM) | MIC [21]: 0.03 µg/mL (≈ 0.0359 µM); MIC [22]: 0.03 µg/mL (≈ 0.0359 µM); MIC [23]: ≤ 0.005 µg/mL; MIC [24]: 0.05 µg/mL (≈ 0.0598 µM); MIC [25]: 3.1 µg/mL (≈ 3.71 µM); MIC [26]: 0.02 µg/mL (≈ 0.0239 µM); MIC [27]: 0.2 µg/mL (≈ 0.239 µM) |
| CC[C@H]1OC(=O)[C@H](C)C(=O)[C@H](C)[C@@H](O[C@@H]2O[C@H](C)C[C@H](N(C)C)[C@H]2O)[C@](C)(OC/C=C/c2ccc(-c3cnccn3)s2)C[C@@H](C)C(=O)[C@H](C)[C@H]2NC(=O)O[C@@]21C [Example 62] | > 100 | 0.02 (≈ 0.025 µM) | 25 (≈ 31.3 µM) | 50 (≈ 62.6 µM) | 0.2 (≈ 0.25 µM) | 2 (≈ 2.5 µM) | 0.05 (≈ 0.0626 µM) | ≤ 0.005 | 0.78 (≈ 0.976 µM) | ≤ 0.005 | > 100 | > 100 | 0.05 (≈ 0.0626 µM) | 0.05 (≈ 0.0626 µM) | 0.02 (≈ 0.025 µM) | 0.05 (≈ 0.0626 µM) | 0.02 (≈ 0.025 µM) | 0.05 (≈ 0.0626 µM) | 0.03 (≈ 0.0375 µM) | 2 (≈ 2.5 µM) | MIC [21]: ≤ 0.004 µg/mL; MIC [22]: ≤ 0.004 µg/mL; MIC [23]: ≤ 0.005 µg/mL; MIC [24]: ≤ 0.005 µg/mL; MIC [25]: 3.1 µg/mL (≈ 3.88 µM); MIC [26]: ≤ 0.005 µg/mL; MIC [27]: 0.1 µg/mL (≈ 0.125 µM) |
| CC[C@H]1OC(=O)[C@H](C)C(=O)[C@H](C)[C@@H](O[C@@H]2O[C@H](C)C[C@H](N(C)C)[C@H]2O)[C@](C)(OC/C=C/c2ccc(-c3ccco3)s2)C[C@@H](C)C(=O)[C@H](C)[C@H]2NC(=O)O[C@@]21C [Example 77] | > 100 | 0.05 (≈ 0.0635 µM) | 50 (≈ 63.5 µM) | 50 (≈ 63.5 µM) | 0.39 (≈ 0.496 µM) | 8 (≈ 10.2 µM) | 0.2 (≈ 0.254 µM) | 0.02 (≈ 0.0254 µM) | 0.78 (≈ 0.991 µM) | 0.2 (≈ 0.254 µM) | 100 (≈ 127 µM) | 100 (≈ 127 µM) | 0.1 (≈ 0.127 µM) | 0.1 (≈ 0.127 µM) | 0.1 (≈ 0.127 µM) | 0.1 (≈ 0.127 µM) | 0.1 (≈ 0.127 µM) | 0.1 (≈ 0.127 µM) | 0.25 (≈ 0.318 µM) | 16 (≈ 20.3 µM) | MIC [21]: ≤ 0.004 µg/mL; MIC [22]: ≤ 0.004 µg/mL; MIC [23]: 0.02 µg/mL (≈ 0.0254 µM); MIC [24]: 0.01 µg/mL (≈ 0.0127 µM); MIC [25]: 12.5 µg/mL (≈ 15.9 µM); MIC [26]: 0.05 µg/mL (≈ 0.0635 µM); MIC [27]: 0.2 µg/mL (≈ 0.254 µM) |
| CC[C@H]1OC(=O)[C@H](C)C(=O)[C@H](C)[C@@H](O[C@@H]2O[C@H](C)C[C@H](N(C)C)[C@H]2O)[C@](C)(OCC#Cc2ccc(-c3cccs3)s2)C[C@@H](C)C(=O)[C@H](C)[C@H]2NC(=O)O[C@@]21C [Example 25] | 12.5 (≈ 15.6 µM) | 0.1 (≈ 0.125 µM) | > 100 | 100 (≈ 125 µM) | 0.2 (≈ 0.25 µM) | 2 (≈ 2.5 µM) | 0.2 (≈ 0.25 µM) | 0.05 (≈ 0.0624 µM) | 0.39 (≈ 0.487 µM) | 0.39 (≈ 0.487 µM) | 25 (≈ 31.2 µM) | 25 (≈ 31.2 µM) | 0.1 (≈ 0.125 µM) | 0.2 (≈ 0.25 µM) | 0.1 (≈ 0.125 µM) | 0.2 (≈ 0.25 µM) | 0.2 (≈ 0.25 µM) | 0.1 (≈ 0.125 µM) | 0.125 (≈ 0.156 µM) | 0.25 (≈ 0.312 µM) | MIC [21]: ≤ 0.004 µg/mL; MIC [22]: ≤ 0.004 µg/mL; MIC [23]: 0.1 µg/mL (≈ 0.125 µM); MIC [24]: 0.1 µg/mL (≈ 0.125 µM); MIC [25]: 1.56 µg/mL (≈ 1.95 µM); MIC [26]: 0.005 µg/mL (≈ 0.00624 µM); MIC [27]: 0.2 µg/mL (≈ 0.25 µM) |
| CC[C@H]1OC(=O)[C@H](C)C(=O)[C@H](C)[C@@H](O[C@@H]2O[C@H](C)C[C@H](N(C)C)[C@H]2O)[C@](C)(OCC#Cc2ccc(-c3cncs3)s2)C[C@@H](C)C(=O)[C@H](C)[C@H]2NC(=O)O[C@@]21C [Example 29] | > 100 | 0.01 (≈ 0.0125 µM) | 50 (≈ 62.3 µM) | 25 (≈ 31.2 µM) | 0.1 (≈ 0.125 µM) | 2 (≈ 2.49 µM) | 0.05 (≈ 0.0623 µM) | ≤ 0.005 | 0.39 (≈ 0.486 µM) | ≤ 0.005 | > 100 | > 100 | 0.05 (≈ 0.0623 µM) | 0.05 (≈ 0.0623 µM) | 0.02 (≈ 0.0249 µM) | 0.05 (≈ 0.0623 µM) | 0.02 (≈ 0.0249 µM) | 0.05 (≈ 0.0623 µM) | 0.25 (≈ 0.312 µM) | 1 (≈ 1.25 µM) | MIC [21]: ≤ 0.004 µg/mL; MIC [22]: ≤ 0.004 µg/mL; MIC [23]: 0.01 µg/mL (≈ 0.0125 µM); MIC [24]: ≤ 0.005 µg/mL; MIC [25]: 3.1 µg/mL (≈ 3.87 µM); MIC [26]: 0.01 µg/mL (≈ 0.0125 µM); MIC [27]: 0.05 µg/mL (≈ 0.0623 µM) |
